Data from patent publication US8450357B2, “Compositions comprising an aryl pyrazole and/or a formamidine, methods and uses thereof” (Merial Limited, priority 2008, dated 2013).
Like-named read-outs stand apart in the source and are kept apart here.

Legend:
[1] = test system: adult Rhipicephalus sanguineus ticks; experiment: whole plant or invertebrate
Experimental: Fipronil was dissolved in acetone containing 0.019% of a mixture of Triton 152 and Triton 172 (1:3, v/v) and 0.4% DMSO to achieve the desired concentration. Dosages were serially diluted using this same formulation. For treatments containing amitraz, amitraz was added to the above solution to achieve the desired concentration. 0.5 ml of the solution was used to treat 20 ml scintillation vials containing a 0.125″ hole in the cap. […] Filter papers treated with this same solution were placed in the cap and bottom of the treated vial. Vials were capped and held over night at 24° C. and 95% RH after which 10 adult Rhipicephalus sanguineus ticks were placed into each vial. The vials were held under the same conditions mentioned above for the duration of the test. […]

[2] = test system: Rhipicephalus sanguineus ticks; experiment: Study C: tick efficacy of Compound 1 and fipronil alone and with amitraz in dogs; assay type: in vivo
Experimental: The effectiveness of Compound 1 alone, fipronil alone, Compound 1 in combination with amitraz, or fipronil in combination with amitraz, when administered once as topical solutions to dogs against induced infestations of Rhipicephalus sanguineus and Ctenocephalides felis were determined in a third clinical study. Thirty-six beagles (18 males and 18 females) were selected for the study. Six replicates of 6 animals each were formed. Treatment Group 1 dogs were treated with a placebo. Treatment Groups 2, 3, 4, 5 and 6 received their respective treatments as a topical spot-on application once on Day 0. Each formulation included diethyleneglycol monoethyl ether (transcutol) as carrier. The Treatment Groups were: Treatment Group 2: fipronil at 0.1 mL/kg body weight (10 mg/kg); Treatment Group 3: Compound 1 at 0.1 mL/kg (10 mg/kg) body weight; Treatment Group 4: Compound 1 at 0.2 mL/kg (20 mg/kg) body weight; Treatment Group 5: Compound 1 at 0.1 mL/kg (10 mg/kg) body weight plus amitraz at 0.04 mL/kg (8 mg/kg) body weight; Treatment Group 6: fipronil at 0.1 mL/kg (10 mg/kg) body weight plus amitraz at 0.04 mL/kg (8 mg/kg) body weight. Treatment was applied by parting the hair and applying the formulation(s) directly onto the skin on one spot at the midline of the neck, except for Groups 4, 5 and 6 which were applied in approximately equal volumes on two spots, one spot between the base of the skull and the shoulder blades and the other at the front of the shoulder blades.
All dogs were infested with approximately 50 Rhipicephalus sanguineus ticks on Days −1, 7, 14, 21, 28, 35, 42, 49 and 56. Dogs were also infested with approximately 100 Ctenocephalides felis fleas on Days −1, 8, 15, 22, 29, 36, 43, 50 and 57. […] Tables 8 and 9 below show the % efficacy of formulations comprising fipronil at 0.1 ml/kg of body weight, Compound 1 at […], and fipronil and Compound 1 both at 10 ml/kg in combination with amitraz at 0.04 ml/kg of body weight compared to control group without active compounds. The percent reduction in flea counts of the treated groups with respect to the Control group over the study is shown in FIG. 14.

Ctenocephalides felis = experiment: Study D: flea efficacy of Compound 1 and fipronil in cats; assay type: in vivo
Experimental: A fourth clinical study was conducted to determine the efficacy of topically administered Compound 1 and fipronil against induced infections of Ctenocephalides felis in cats. Twenty four cats (17 males, 7 females) were included in the study. Six replicates of four cats each were formed based on decreasing Day −5 flea counts. Within replicates, cats were randomly allocated to Treatment Groups 1, 2, 3 or 4, respectively, by using a die: Group 1—untreated (vehicle control); Group 2—Compound 1 (10 mg/kg); Group 3—Compound 1 (20 mg/kg); Group 4—fipronil (10 mg/kg). Treatment was performed by topical administration of the formulations in the midline of the neck, between the base of the skull and the shoulder blades in a single spot after parting the hair. Animals were observed hourly for approximately four hours following treatment.
The cats were infested with approximately 100 Ct. felis fleas each during acclimation on Day −6 for allocation purposes, and on Days −1, 14, 21, 28, 35 and 42 for treatment efficacy evaluation purposes. The fleas were removed by combing each cat approximately 24 hours following each infestation except for the Day −1 infestation which was followed by flea removal and count on Day 1 (˜48 hours following infestation).

[3] = 4 h, read-out: 4 hour % Mortality Rep 1
[4] = 4 h, read-out: 4 hour % Mortality Rep 2
[5] = 4 h, read-out: 4 hour Avg. % Mortality
[6] = 24 h, read-out: 24 hour % Mortality Rep 1
[7] = 24 h, read-out: 24 hour % Mortality Rep 2
[8] = 24 h, read-out: 24 hour Avg. % Mortality
[9] = 48 h, read-out: 48 hour % Mortality Rep 1
[10] = 48 h, read-out: 48 hour % Mortality Rep 2
[11] = 48 h, read-out: 48 hour Avg. % Mortality

Cc1ccc(/N=C/N(C)/C=N/c2ccc(C)cc2C)c(C)c1 [Amitraz, amitraz]
mortality at 3.13 ppm [1, 3]: 0% | mortality at 6.25 ppm [1, 3]: 0% | mortality at 12.5 ppm [1, 3]: 0% | mortality at 25 ppm [1, 3]: 0% | mortality at 3.13 ppm [1, 4]: 0% | mortality at 6.25 ppm [1, 4]: 0% | mortality at 12.5 ppm [1, 4]: 0% | mortality at 25 ppm [1, 4]: 0% | mortality at 3.13 ppm [1, 5]: 0% | mortality at 6.25 ppm [1, 5]: 0% | mortality at 12.5 ppm [1, 5]: 0% | mortality at 25 ppm [1, 5]: 0% | mortality at 3.13 ppm [1, 6]: 0% | mortality at 6.25 ppm [1, 6]: 0% | mortality at 12.5 ppm [1, 6]: 0% | mortality at 25 ppm [1, 6]: 0% | mortality at 3.13 ppm [1, 7]: 0% | mortality at 6.25 ppm [1, 7]: 0% | mortality at 12.5 ppm [1, 7]: 0% | mortality at 25 ppm [1, 7]: 0% | mortality at 3.13 ppm [1, 8]: 0% | mortality at 6.25 ppm [1, 8]: 0% | mortality at 12.5 ppm [1, 8]: 0% | mortality at 25 ppm [1, 8]: 0% | mortality at 3.13 ppm [1, 9]: 0% | mortality at 6.25 ppm [1, 9]: 0% | mortality at 12.5 ppm [1, 9]: 0% | mortality at 25 ppm [1, 9]: 0% | mortality at 3.13 ppm [1, 10]: 0% | mortality at 6.25 ppm [1, 10]: 0% | mortality at 12.5 ppm [1, 10]: 0% | mortality at 25 ppm [1, 10]: 0% | mortality at 3.13 ppm [1, 11]: 0% | mortality at 6.25 ppm [1, 11]: 0% | mortality at 12.5 ppm [1, 11]: 0% | mortality at 25 ppm [1, 11]: 0%

Cc1c([S+]([O-])C(F)(Cl)Cl)c(C#N)nn1-c1c(F)cc(C(F)(F)F)cc1Cl (centres unmarked) [Compound 1, 3-cyano-1-(2-chloro-6-fluoro-4-trifluoromethylphenyl)-4-dichlorofluoromethylsulfinyl-5-methyl-1H-pyrazole]
% Efficacy (Tick Efficacy) ([2]; Day 1, 10 mg/kg): 88.1% | % Efficacy (Tick Efficacy) ([2]; Day 1, 20 mg/kg): 98.6% | % Efficacy (Tick Efficacy) ([2]; Day 2, 10 mg/kg): 96.8% | % Efficacy (Tick Efficacy) ([2]; Day 2, 20 mg/kg): 98.9% | % Efficacy (Tick Efficacy) ([2]; Day 8, 10 mg/kg): 93.5% | % Efficacy (Tick Efficacy) ([2]; Day 8, 20 mg/kg): 98.6% | % Efficacy (Tick Efficacy) ([2]; Day 9, 10 mg/kg): 97.7% | % Efficacy (Tick Efficacy) ([2]; Day 9, 20 mg/kg): 100% | % Efficacy (Tick Efficacy) ([2]; Day 15, 10 mg/kg): 98.5% | % Efficacy (Tick Efficacy) ([2]; Day 15, 20 mg/kg): 99.3% | % Efficacy (Tick Efficacy) ([2]; Day 16, 10 mg/kg): 100% | % Efficacy (Tick Efficacy) ([2]; Day 16, 20 mg/kg): 100% | % Efficacy (Tick Efficacy) ([2]; Day 23, 10 mg/kg): 98.4% | % Efficacy (Tick Efficacy) ([2]; Day 23, 20 mg/kg): 100% | % Efficacy (Tick Efficacy) ([2]; Day 30, 10 mg/kg): 99% | % Efficacy (Tick Efficacy) ([2]; Day 30, 20 mg/kg): 99.5% | % Efficacy (Tick Efficacy) ([2]; Day 37, 10 mg/kg): 94.3% | % Efficacy (Tick Efficacy) ([2]; Day 37, 20 mg/kg): 98.6% | % Efficacy (Tick Efficacy) ([2]; Day 44, 10 mg/kg): 92.4% | % Efficacy (Tick Efficacy) ([2]; Day 44, 20 mg/kg): 92.3% | % Efficacy (Tick Efficacy) ([2]; Day 51, 10 mg/kg): 84.7% | % Efficacy (Tick Efficacy) ([2]; Day 51, 20 mg/kg): 86.5% | % Efficacy (Tick Efficacy) ([2]; Day 58, 10 mg/kg): 83.1% | % Efficacy (Tick Efficacy) ([2]; Day 58, 20 mg/kg): 87.4% | % Efficacy against fleas (Ctenocephalides felis; Day 1, 10 mg/kg): 99.84% | % Efficacy against fleas (Ctenocephalides felis; Day 1, 20 mg/kg): 100% | % Efficacy against fleas (Ctenocephalides felis; Day 15, 10 mg/kg): 99.81% | % Efficacy against fleas (Ctenocephalides felis; Day 15, 20 mg/kg): 100% | % Efficacy against fleas (Ctenocephalides felis; Day 22, 10 mg/kg): 100% | % Efficacy against fleas (Ctenocephalides felis; Day 22, 20 mg/kg): 100% | % Efficacy against fleas (Ctenocephalides felis; Day 29, 10 mg/kg): 100% | % Efficacy against fleas (Ctenocephalides felis; Day 29, 20 mg/kg): 100% | % Efficacy against fleas (Ctenocephalides felis; Day 36, 10 mg/kg): 99.43% | % Efficacy against fleas (Ctenocephalides felis; Day 36, 20 mg/kg): 100% | % Efficacy against fleas (Ctenocephalides felis; Day 43, 10 mg/kg): 97.28% | % Efficacy against fleas (Ctenocephalides felis; Day 43, 20 mg/kg): 100%

N#Cc1nn(-c2c(Cl)cc(C(F)(F)F)cc2Cl)c(N)c1[S+]([O-])C(F)(F)F (centres unmarked) [fipronil, 5-amino-3-cyano-1-(2,6-dichloro-4-trifluoromethylphenyl)-4-trifluoromethylsulfinylpyrazole]
% Efficacy (Tick Efficacy) ([2]; Day 1, 10 mg/kg): 88.6% | % Efficacy (Tick Efficacy) ([2]; Day 2, 10 mg/kg): 90.9% | % Efficacy (Tick Efficacy) ([2]; Day 8, 10 mg/kg): 99.4% | % Efficacy (Tick Efficacy) ([2]; Day 9, 10 mg/kg): 100% | % Efficacy (Tick Efficacy) ([2]; Day 15, 10 mg/kg): 100% | % Efficacy (Tick Efficacy) ([2]; Day 16, 10 mg/kg): 100% | % Efficacy (Tick Efficacy) ([2]; Day 23, 10 mg/kg): 98.8% | % Efficacy (Tick Efficacy) ([2]; Day 30, 10 mg/kg): 100% | % Efficacy (Tick Efficacy) ([2]; Day 37, 10 mg/kg): 99% | % Efficacy (Tick Efficacy) ([2]; Day 44, 10 mg/kg): 98.2% | % Efficacy (Tick Efficacy) ([2]; Day 51, 10 mg/kg): 92.8% | % Efficacy (Tick Efficacy) ([2]; Day 58, 10 mg/kg): 82.7% | mortality at 0.025 ppm [1, 3]: 0% | mortality at 0.1 ppm [1, 3]: 0% | mortality at 0.4 ppm [1, 3]: 0% | mortality at 1.6 ppm [1, 3]: 0% | mortality at 6.25 ppm [1, 3]: 10% | mortality at 25 ppm [1, 3]: 80% | mortality at 0.025 ppm [1, 4]: 0% | mortality at 0.1 ppm [1, 4]: 0% | mortality at 0.4 ppm [1, 4]: 0% | mortality at 1.6 ppm [1, 4]: 0% | mortality at 6.25 ppm [1, 4]: 20% | mortality at 25 ppm [1, 4]: 90% | mortality at 0.025 ppm [1, 5]: 0% | mortality at 0.1 ppm [1, 5]: 0% | mortality at 0.4 ppm [1, 5]: 0% | mortality at 1.6 ppm [1, 5]: 0% | mortality at 6.25 ppm [1, 5]: 15% | mortality at 25 ppm [1, 5]: 85% | mortality at 0.025 ppm [1, 6]: 0% | mortality at 0.1 ppm [1, 6]: 0% | mortality at 0.4 ppm [1, 6]: 0% | mortality at 6.25 ppm [1, 6]: 100% | mortality at 25 ppm [1, 6]: 100% | mortality at 0.025 ppm [1, 7]: 0% | mortality at 0.1 ppm [1, 7]: 0% | mortality at 0.4 ppm [1, 7]: 0% | mortality at 1.6 ppm [1, 7]: 30% | mortality at 6.25 ppm [1, 7]: 90% | mortality at 25 ppm [1, 7]: 100% | mortality at 0.025 ppm [1, 8]: 0% | mortality at 0.1 ppm [1, 8]: 0% | mortality at 0.4 ppm [1, 8]: 0% | mortality at 1.6 ppm [1, 8]: 50% | mortality at 6.25 ppm [1, 8]: 95% | mortality at 25 ppm [1, 8]: 100% | mortality at 0.025 ppm [1, 9]: 0% | mortality at 0.1 ppm [1, 9]: 0% | mortality at 0.4 ppm [1, 9]: 0% | mortality at 1.6 ppm [1, 9]: 100% | mortality at 6.25 ppm [1, 9]: 100% | mortality at 25 ppm [1, 9]: 100% | mortality at 0.025 ppm [1, 10]: 0% | mortality at 0.1 ppm [1, 10]: 0% | mortality at 0.4 ppm [1, 10]: 0% | mortality at 1.6 ppm [1, 10]: 70% | mortality at 6.25 ppm [1, 10]: 90% | mortality at 25 ppm [1, 10]: 100% | mortality at 0.025 ppm [1, 11]: 0% | mortality at 0.1 ppm [1, 11]: 0% | mortality at 0.4 ppm [1, 11]: 0% | mortality at 1.6 ppm [1, 11]: 85% | mortality at 6.25 ppm [1, 11]: 95% | mortality at 25 ppm [1, 11]: 100% | % Efficacy against fleas (Ctenocephalides felis; Day 1, 10 mg/kg): 97.96% | % Efficacy against fleas (Ctenocephalides felis; Day 15, 10 mg/kg): 100% | % Efficacy against fleas (Ctenocephalides felis; Day 22, 10 mg/kg): 100% | % Efficacy against fleas (Ctenocephalides felis; Day 29, 10 mg/kg): 95.59% | % Efficacy against fleas (Ctenocephalides felis; Day 36, 10 mg/kg): 99.24% | % Efficacy against fleas (Ctenocephalides felis; Day 43, 10 mg/kg): 97.81%
